Legend:
Type in all cases: cell-based
Ad-5 = assay: Antiviral log reduction (Table 2B)
[1] = test system: Enterobacter aerogenes ATCC 51697; assay: MBC of NVC-422 (Table 2A); conditions: Klebsiella aerogenes, ATCC51697
[2] = test system: Acinetobacter calcoaceticus ATCC 51432; assay: MBC of NVC-422 (Table 2A); conditions: ATCC51432
Influenza A = assay: Antiviral log reduction (Table 2B)
[3] = test system: Candida albicans ATCC 10231; assay: MBC of NVC-422 (Table 2A); conditions: ATCC10231
Rhinovirus-39 = assay: Antiviral log reduction (Table 2B)
[4] = test system: Klebsiella pneumoniae ATCC 10031; assay: MBC of NVC-422 (Table 2A); conditions: ATCC10031
[5] = test system: Candida glabrata ATCC 90030; assay: MBC of NVC-422 (Table 2A); conditions: Nakaseomyces glabratus, ATCC90030
[6] = test system: Staphylococcus epidermidis ATCC 12228; assay: MBC of NVC-422 (Table 2A); conditions: ATCC12228
[7] = test system: Staphylococcus aureus ATCC 29213; assay: MBC of NVC-422 (Table 2A); conditions: ATCC29213
[8] = test system: Escherichia coli ATCC 25922; assay: MBC of NVC-422 (Table 2A); conditions: ATCC25922
[9] = test system: Enterococcus faecium [VRE] ATCC 51559; assay: MBC of NVC-422 (Table 2A)
[10] = test system: Haemophilus influenzae ATCC 49144; assay: MBC of NVC-422 (Table 2A); conditions: ATCC49144
[11] = test system: Staphylococcus aureus ATCC 6358; assay: MBC of NVC-422 (Table 2A); conditions: ATCC6358
[12] = test system: Acinetobacter baumanii ATCC 19606; assay: MBC of NVC-422 (Table 2A); conditions: Acinetobacter baumannii, ATCC19606
[13] = test system: Serratia marcescens ATCC 13880; assay: MBC of NVC-422 (Table 2A); conditions: ATCC13880
[14] = test system: Staphylococcus sciuri ATCC 49575; assay: MBC of NVC-422 (Table 2A); conditions: Mammaliicoccus sciuri, ATCC49575
[15] = test system: Serratia marcescens ATCC 14756; assay: MBC of NVC-422 (Table 2A); conditions: ATCC14756
[16] = test system: Staphylococcus aureus [MRSA] ATCC 33591; assay: MBC of NVC-422 (Table 2A)
[17] = test system: Pseudomonas aeruginosa ATCC 27853; assay: MBC of NVC-422 (Table 2A); conditions: ATCC27853
HSV-1 = assay: Antiviral log reduction (Table 2B)
[18] = test system: Staphylococcus hominis ATCC 27844; assay: MBC of NVC-422 (Table 2A); conditions: ATCC27844
[19] = test system: Enterococcus faecalis ATCC 29212; assay: MBC of NVC-422 (Table 2A); conditions: ATCC29212
[20] = test system: Proteus mirabilis ATCC 29245; assay: MBC of NVC-422 (Table 2A); conditions: ATCC29245

Nc1ccn(C[C@@H](CO)OCP(=O)(O)O)c(=O)n1 [Cidofovir, reference compound]
Log Reduction (Ad-5; (Ad5/A549 control)/Cidofovir, column 0.001%): 0 | Log Reduction (Ad-5; (Ad5/A549 control)/Cidofovir, column 0.01%): 0

CC(C)(CS(=O)(=O)O)N(Cl)Cl [NVC-422, N,N-dichloro-2,2-dimethyltaurine]
MBC [1]: 0.5 µg/mL | MBC [2]: 2 µg/mL | Log Reduction (Influenza A; concentration of NVC-422 0.01%): 0.3 | Log Reduction (Influenza A; concentration of NVC-422 0.1%): 1.0 | Log Reduction (Influenza A; concentration of NVC-422 1.0%): >3.8 | MBC [3]: 32 µg/mL | Log Reduction (Rhinovirus-39; concentration of NVC-422 0.01%): 1.7 | Log Reduction (Rhinovirus-39; concentration of NVC-422 0.1%): >1.5 | MBC [4]: 0.25 µg/mL | MBC [5]: 16 µg/mL | MBC [6]: 0.25 µg/mL | MBC [7]: 2 µg/mL | MBC [8]: 2 µg/mL | MBC [9]: 0.5 µg/mL | MBC [10]: 0.5 µg/mL | MBC [11]: 2 µg/mL | MBC [12]: 4 µg/mL | MBC [13]: 1 µg/mL | MBC [14]: 0.12 µg/mL | MBC [15]: 2 µg/mL | MBC [16]: 4 µg/mL | MBC [17]: 1 µg/mL | Log Reduction (Ad-5; Ad-5 + 10% tears, concentration of NVC-422 0.001%): 1.0 | Log Reduction (Ad-5; Ad-5 + 10% tears, concentration of NVC-422 0.01%): 1.7 | Log Reduction (Ad-5; Ad-5 + 10% tears, concentration of NVC-422 0.1%): >3.8 | Log Reduction (Ad-5; Ad-5, concentration of NVC-422 0.001%): 2.8 | Log Reduction (Ad-5; Ad-5, concentration of NVC-422 0.01%): 4.3 | Log Reduction (Ad-5; Ad-5, concentration of NVC-422 0.1%): >4.3 | Log Reduction (HSV-1; HSV-1 + 10% tears, concentration of NVC-422 0.001%): 4.5 | Log Reduction (HSV-1; HSV-1 + 10% tears, concentration of NVC-422 0.01%): >4.5 | Log Reduction (HSV-1; HSV-1, concentration of NVC-422 0.001%): >4.5 | Log Reduction (HSV-1; HSV-1, concentration of NVC-422 0.01%): >4.5 | MBC [18]: 4 µg/mL | MBC [19]: 0.5 µg/mL | MBC [20]: 1 µg/mL
